Results on 25 compounds are retold here after ChEMBL document CHEMBL1146642, “5-Alkyl-2-[(aryl and alkyloxylcarbonylmethyl)thio]-6-(1-naphthylmethyl) pyrimidin-4(3H)-ones as an unique HIV reverse transcriptase inhibitors of S-DABO series” (Bioorg Med Chem Lett, 2004).

Each structure is given as a SMILES string.

In assay [1] the test system is MT4. The assay is described as follows: Concentration required to protect the cell against HIV-2 strain ROD viral cytopathogenicity by 50% in MT-4 cells. It counts as functional, cell-based, Human immunodeficiency virus 2. Particulars: Homo sapiens. A general note: Cytopathic effects are the visible damage that an infection or toxin causes in cultured cells; call rule not given here.
For assay [2], the system named is MT4. Nature of the assay: Concentration required to protect the cell against SO561945 viral cytopathogenicity by 50% in MT-4 cells. It counts as functional, cell-based. Particulars: Homo sapiens.
In assay [3] the test system is MT4. Nature of the assay: Cytotoxic concentration that reduces the MT-4 cell viability by 50%. The format is functional. The settings on record: Homo sapiens.
The subject of assay [4] is MT4. The assay is described as follows: Concentration required to protect the cell against HIV-2 strain ROD viral cytopathogenicity by 50% in MT-4 cells; NA denotes not active. The format is functional, cell-based, Homo sapiens.

For `Cc1ccc(C(=O)CSc2nc(O)c(C)c(Cc3cccc4ccccc34)n2)cc1`, the IC50 (commonly the midpoint of a concentration-inhibition curve) in assay [1] was at least 13.6 µM; in assay [2], at least 251 µM. Moreover, the CC50 (usually the concentration at which the toxic effect on the cells reaches its halfway point) in assay [3] is at least 251 µM.
The compound `COc1ccc(C(=O)CSc2nc(O)c(C)c(Cc3cccc4ccccc34)n2)cc1` came in with an IC50 in assay [1] of at least 0.42 µM. The same compound gave a CC50 in assay [3] above 290 µM.
On the same counts, the results for `CCc1c(O)nc(SCC(=O)c2ccc(Cl)cc2)nc1Cc1cccc2ccccc12` are at least 0.26 µM and 56 µM.
In assay [1], `CC(=O)CSc1nc(O)c(C)c(Cc2cccc3ccccc23)n1` showed an IC50 of at least 84.9 µM. Moreover, it took 85 µM to reach half-maximal cytotoxicity in assay [3] (CC50).
Regarding `CCOC(=O)CSc1nc(O)c(C(C)C)c(Cc2cccc3ccccc23)n1`, the IC50 in assay [1] was at least 41.1 µM. Further, in assay [3], it took 175 µM to reach half-maximal cytotoxicity (CC50).
Take `COC(=O)CSc1nc(O)c(C)c(Cc2cccc3ccccc23)n1`: the IC50 in assay [1] was at least 296 µM. Further, in assay [3], the CC50 was at least 296 µM.
For `CC(C)c1c(O)nc(SCC(=O)c2ccccc2)nc1Cc1cccc2ccccc12`, the IC50 in assay [1] is 22 µM. The CC50 in assay [3] was found to be 238 µM.
Take `Cc1ccc(C(=O)CSc2nc(O)c(C(C)C)c(Cc3cccc4ccccc34)n2)c(C)c1`: half-maximal inhibition in assay [1] (IC50) was put at 4 µM. The same compound came in with a half-maximal cytotoxic concentration (CC50) in assay [3] of 27 µM.
With `Cc1c(O)nc(SCC(=O)c2ccc(Cl)cc2)nc1Cc1cccc2ccccc12`, the half-maximal inhibitory concentration (IC50) in assay [1] amounted to 19.8 µM. This compound also came in with a CC50 in assay [3] of at least 198 µM.
As for `O=c1[nH]cnc2c1ncn2[C@H]1CC[C@@H](CO)O1` [DIDANOSINE], the IC50 in assay [1] stood at 2.71 µM. In assay [3], this compound had a CC50 of at least 529 µM.
For `Cc1ccnc2c1NC(=O)c1cccnc1N2C1CC1` [NEVIRAPINE], in assay [4], the IC50 entry is listed as “Not Active”. The compound further showed a CC50 in assay [3] above 200 µM.
Compound `CCc1c(O)nc(SCC(=O)OC)nc1Cc1cccc2ccccc12` displayed an IC50 in assay [1] of at least 196 µM. Also, the CC50 in assay [3] is at least 196 µM.
In the case of `CC(=O)CSc1nc(O)c(C(C)C)c(Cc2cccc3ccccc23)n1`, the IC50 in assay [1] was above 43.1 µM. This compound also gave a CC50 in assay [3] of 43 µM.
As for `Cc1c(Sc2ccccc2)n(COCCO)c(=O)[nH]c1=O` [HEPT], the concentration for half-maximal inhibition (IC50) entry in assay [4] is “Not Active”. In assay [3], this compound returned a CC50 of 405 µM.
`COc1ccc(C(=O)CSc2nc(Cc3cccc4ccccc34)c(C(C)C)c(=O)[nH]2)cc1` yielded an IC50 in assay [1] of 13.4 µM. The compound further displayed a CC50 in assay [3] of at least 203 µM.
On the same counts, the results for `COC(=O)CSc1nc(O)c(C(C)C)c(Cc2cccc3ccccc23)n1` are above 179 µM and 179 µM.
Regarding `CCc1c(O)nc(SCC(=O)c2ccc(F)cc2)nc1Cc1cccc2ccccc12`, it took 16.3 µM to reach half-maximal inhibition in assay [1] (IC50). The same compound displayed a CC50 in assay [3] of at least 240 µM.
`CC(C)c1c(O)nc(SCC(=O)c2ccc(F)cc2)nc1Cc1cccc2ccccc12` gave an IC50 in assay [1] of at least 32.2 µM. This compound showed a CC50 in assay [3] of 186 µM.
In assay [1], `Cc1ccc(C(=O)CSc2nc(O)c(C(C)C)c(Cc3cccc4ccccc34)n2)cc1` gave an IC50 of at least 225 µM. Also, it took 225 µM to reach half-maximal cytotoxicity in assay [3] (CC50).
`CC(C)c1c(O)nc(SCC(=O)c2ccc(Cl)cc2)nc1Cc1cccc2ccccc12` showed an IC50 in assay [1] above 270 µM. The same compound registered a CC50 in assay [3] above 270 µM.
On to `CCOC(=O)CSc1nc(O)c(C)c(Cc2cccc3ccccc23)n1`, for which the IC50 in assay [1] is at least 293 µM. Besides, in assay [3], the CC50 was at least 287 µM.
Take `CCc1c(O)nc(SCC(=O)c2ccc(OC)cc2)nc1Cc1cccc2ccccc12`: the IC50 in assay [1] is at least 18.9 µM. The midpoint of cytotoxicity in assay [3], the CC50, lay at 178 µM.
Take `O=C1Nc2ccc(Cl)cc2[C@@](C#CC2CC2)(C(F)(F)F)O1` [EFAVIRENZ]: the IC50 entry in assay [4] is listed as “Not Active”. In assay [3], the midpoint of cytotoxicity, the CC50, lay at 80 µM.
`Cc1c(O)nc(SCC(=O)c2ccc(F)cc2)nc1Cc1cccc2ccccc12`: the IC50 in assay [1] is at least 275 µM. The compound further returned a cytotoxic concentration (CC50) in assay [3] of at least 275 µM.
Consider `CCc1c(O)nc(SCC(=O)c2ccc(C)cc2)nc1Cc1cccc2ccccc12`, for which the IC50 in assay [1] is at least 1.25 µM. Also, in assay [3], the midpoint of cytotoxicity, the CC50, lay at 6 µM.
